Experimental data as given in patent US11053235B2, “Substituted 1,4-dihydropyrimidines for the treatment of HBV infection or HBV-induced diseases” (Janssen Sciences Ireland Unlimited Company, priority 2018, dated 2021).

Columns and labels:
[1] = Cytotoxicity determination in HepG2.2.15 cells (CCK-8); type: cell-based; settings: human, 6 days treatment, CCK-8, highest concentration 100 uM
In short: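 CC50 derived from CCK-8 absorbance (450 nm, 630 nm reference) after 2.5 h incubation at 37 °C. Before that, HepG2.2.15 cells (5,000/well, 2% FBS) received an 8-point, 3-fold compound series topping at 100 uM for 6 days, with one mid-treatment medium change.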

HBV = test: Anti-viral assay in HepG2.2.15 cells: HBV inhibitory activity (HBV DNA in culture medium by q-PCR); type: cell-based; settings: Hepatitis B virus, HepG2.2.15, 144 h, HepG2.2.15 cells, 6 days treatment, HBV DNA in culture medium by q-PCR, highest concentration 10 uM; read-out: EC50
In short: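 HBV DNA released into the medium was measured by q-PCR after 6-day compound exposure of HepG2.2.15 cells (40,000/well, 2% FBS, one mid-course medium change). Eight 3-fold dilutions, highest 10 uM; EC50 derived by curve fitting.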

| Compound | CC50 at 6 days [1] | EC50 (HBV) |
| --- | --- | --- |
| COC(=O)C1=C(C2CCN(c3ncc(C(=O)O)s3)CC2)NC(c2nccs2)=NC1c1ccc(F)cc1Cl (single isomer, unassigned) [II-19-A, 2-(4-(6-(2-Chloro-4-fluorophenyl)-5-(methoxycarbonyl)-2-(thiazol-2-yl)-3,6-dihydropyrimidin-4-yl)piperidin-1-yl)thiazole-5-carboxylic Acid] | 19.3 µM | 0.0064 µM |
| CCOC(=O)C1=C(C2CCN(c3ncc(C)c(C(=O)O)n3)CC2)NC(c2nccs2)=NC1c1ccc(F)cc1Cl (single isomer, unassigned) [II-20-B, 2-(4-(6-(2-Chloro-4-fluorophenyl)-5-(ethoxycarbonyl)-2-(thiazol-2-yl)-3,6-dihydropyrimidin-4-yl)piperidin-1-yl)-5-methylpyrimidine-4-carboxylic Acid] | 16.8 µM | 0.015 µM |
| CCOC(=O)C1=C(C2CCN(c3ncc(CC(=O)O)cn3)CC2)NC(c2nccs2)=NC1c1ccc(F)cc1Cl (single isomer, unassigned) [II-21-B, 2-(2-(4-(6-(2-Chloro-4-fluorophenyl)-5-(ethoxycarbonyl)-2-(thiazol-2-yl)-3,6-dihydropyrimidin-4-yl)piperidin-1-yl)pyrimidin-5-yl)acetic Acid] | 7.11 µM | 0.0062 µM |
| CCOC(=O)C1=C(C2CCN(c3ncc(C)c(C(=O)O)n3)CC2)NC(c2nccs2)=NC1c1cccc(F)c1Cl (single isomer, unassigned) [II-22-B, 2-(4-(6-(2-Chloro-3-fluorophenyl)-5-(ethoxycarbonyl)-2-(thiazol-2-yl)-3,6-dihydropyrimidin-4-yl)piperidin-1-yl)-5-methylpyrimidine-4-carboxylic Acid] | 11.2 µM | 0.015 µM |
| CCOC(=O)C1=C(C2CCN(c3ncc(CC(=O)O)cn3)CC2)NC(c2nccs2)=NC1c1cccc(F)c1Cl (single isomer, unassigned) [II-23-B, 2-(2-(4-(6-(2-Chloro-3-fluorophenyl)-5-(ethoxycarbonyl)-2-(thiazol-2-yl)-3,6-dihydropyrimidin-4-yl)piperidin-1-yl)pyrimidin-5-yl)acetic Acid] | 3.88 µM | < 0.0046 µM |
| COC(=O)C1=C(C2CCN(c3ncc([C@]4(O)C[C@@H](C(=O)O)C4)cn3)CC2)NC(c2nccs2)=NC1c1ccc(F)c(F)c1Cl (single isomer, unassigned) [II-24-B, (cis)-3-(2-(4-(6-(2-chloro-3,4-difluorophenyl)-5-(methoxycarbonyl)-2-(thiazol-2-yl)-3,6-dihydropyrimidin-4-yl)piperidin-1-yl)pyrimidin-5-yl)-3-hydroxycyclobutanecarboxylic Acid] | 11 µM | < 0.0046 µM |
| COC(=O)C1=C(C2CCN(c3ncc(C(=O)O)o3)CC2)NC(c2nccs2)=NC1c1ccc(F)c(F)c1Cl (single isomer, unassigned) [II-25-B, 2-(4-(6-(2-Chloro-3,4-difluorophenyl)-5-(methoxycarbonyl)-2-(thiazol-2-yl)-3,6-dihydropyrimidin-4-yl)piperidin-1-yl)oxazole-5-carboxylic Acid] | 18.1 µM | 0.054 µM |
| COC(=O)C1=C(C2CCN(c3ncc(Cl)c(C(=O)O)n3)CC2)NC(c2nccs2)=NC1c1ccc(F)c(F)c1Cl (single isomer, unassigned) [II-26-B, 5-Chloro-2-(4-(6-(2-chloro-3,4-difluorophenyl)-5-(methoxycarbonyl)-2-(thiazol-2-yl)-3,6-dihydropyrimidin-4-yl)piperidin-1-yl)pyrimidine-4-carboxylic Acid] | 11.1 µM | 0.045 µM |
| COC(=O)C1=C(C2CCN(c3ncc(C)c(C(=O)O)n3)CC2)NC(c2nccs2)=NC1c1ccc(F)c(F)c1Cl (single isomer, unassigned) [II-27-B, 2-(4-(6-(2-Chloro-3,4-difluorophenyl)-5-(methoxycarbonyl)-2-(thiazol-2-yl)-3,6-dihydropyrimidin-4-yl)piperidin-1-yl)-5-methylpyrimidine-4-carboxylic Acid] | 20.2 µM | 0.0055 µM |
